Assay results from patent US20080318880A1, “Neoadjuvant treatment of Breast Cancer” (The University of Manitoba, priority 2002, published 2008).
“And” between values parts separate entries of the source, which are not always exact repeats. Equal entries are not always repeated.

Test system: inflammatory or T3 to T4 breast cancer
Assay: Phase II clinical trial of neoadjuvant DPPE plus anthracycline/taxane chemotherapy
Format: in vivo, human
Protocol: In the neoadjuvant treatment of inflammatory or T3 to T4 breast cancer, the diphenyl compound preferably is used in an amount of about 3 to about 10 mg/kg of patient, administered intravenously over a period of about 30 to about 90 minutes prior to administration of the chemotherapeutic agents and continuing for the period of administration of the chemotherapy agent. In the specific Phase II clinical trial described herein, there was employed 6 mg/kg of DPPE in the form of its hydrochloride salt, administered intravenously as an aqueous solution thereof over 80 minutes, with the last twenty minutes being accompanied by infusion of the chemotherapeutic agents, followed by the intravenous administration of an aqueous solution at a dose of 2.5 mg/kg of DPPE for 180 minutes accompanied by the infusion of Taxol® or for 60 minutes accompanied by the infusion of Taxotere®. The chemotherapy agents which are employed herein preferably are used in a total amount of 75 to about 225 mg/M^2 of patient consistent with the identity of the chemotherapy agent. The chemotherapeutic agents may be administered in an amount of about 50 to about 60 mg/M^2 of patient for doxorubicin or epirubicin, about 175 to about 225 mg/M^2 of Taxol® and about 75 to about 100 mg/M^2 of Taxotere®. In the specific Phase II clinical trial described herein, there was employed 50 mg/M^2 of doxorubicin or epirubicin, and 175 mg/M^2 of Taxol® or 75 mg/M^2 of Taxotere®, administered over the last 20 minutes of infusion of the DPPE solution and over a further 180 minutes for Taxol® or 60 minutes for Taxotere®, accompanied by infusion of a 2.5 mg/kg of DPPE solution. As noted above, patients with inflammatory breast cancer or T3 to T4 breast cancer are subjected to a number of cycles of chemotherapy at predetermined intervals to reduce the size of the tumor to an operable size. The number of cycles for each patient is generally about 5 to about 8 cycles, with about 21 to about 28 days between each cycle. In the Phase II clinical trial, patients were subjected to 6 cycles at time intervals of 21 days. A Phase II clinical trial was carried out in which patients (N=8) with inflammatory (N=7) and T3 to T4 (N=1) breast cancer were treated with a combination of DPPE and epirubicin (EPI)/Taxol® (N=5), a combination of DPPE and doxorubicin (DOX)/Taxol® (N=2) and DPPE and a combination of DPPE and epirubicin/Taxotere® (N=1). DPPE was administered at a dose of […] over 80 minutes with a combination of epirubicin or doxorubicin at a dose of 50 mg/M^2 and Taxol® at a dose of 175 mg/M^2 or Taxotere® at a dose of 75 mg/M^2 over the last 20 minutes and during a further 180 minutes for Taxol® or 60 minutes for Taxotere®, at a dose of 2.5 mg/kg. The treatment was repeated at 21 day intervals for 6 cycles. The eight patients with inflammatory or T3 to T4 breast cancer had no previous chemo- or radiotherapy. When the chemotherapy cycles were complete, the cancerous tissue was removed and the patients observed. The results obtained are shown in Table I. In this Table, the abbreviation TTP stands for time to progression and the abbreviation OS stands for overall survival. […] This patient remains disease-free at 55+ months.

[1] = 8 patients pooled: 5 DPPE/EPI/TAXOL, 2 DPPE/DOX/TAXOL, 1 DPPE/EPI/TAXOTERE
[2] = number of patients of 8, first figure of cell, same regimens
[3] = number of patients of 8, second figure of cell, marked *, same regimens

CCN(CC)CCOc1ccc(Cc2ccccc2)cc1 [DPPE, N,N-diethyl-2-[4-(phenylmethyl)-phenoxy]ethanamine]
OS (overall survival), median [1]: 43+ mos.
TTP (time to progression), median [1]: 21 mos.
overall outcome of trial (DPPE along with doxorubicin/epirubicin and Taxol/Taxotere): effective neoadjuvant treatment which lead to long term survival post surgery
Response CR (number of patients of 8, first figure of cell (not marked as pathological criteria), DPPE 6 mg/M^2 over 80 min + epirubicin or doxorubicin 50 mg/M^2 + Taxol 175 mg/M^2 or Taxotere 75 mg/M^2, 6 cycles at 21 day intervals): 4
Response NR [2]: 1
Response PR [2]: 3
Response CR, pathological criteria (number of patients of 8, second figure of cell, marked * (pathological criteria), same regimens): 2
Response NR, pathological criteria [3]: 2
Response PR, pathological criteria [3]: 4
response of individual patient (third patient, only high-grade cells on cytology): clinical/pathological complete remission
disease-free time of individual patient (third patient, with complete remission): ≥ 55 months
high-grade tumor component post-surgery (two long-term survivors with mixed high-grade tumors pre-treatment): no high-grade component post-surgery
survival of individual long-term survivors (two patients with mixed high-grade tumors pre-treatment): ≥ 45 months and ≥ 53 months
